Source: article PMC11033320, “Activation of p53 signaling and regression of breast and prostate carcinoma cells by spirooxindole-benzimidazole small molecules” (Frontiers in Pharmacology, 2024)

Experiments:
NCI-H322M = experiment: NCI anticancer screening, Non-Small Cell Lung Cancer NCI-H322M; format: cell-based; conditions: Homo sapiens, read-out: % Growth Inhibition (GI %)
Excerpt: (§1) The compound has been processed according to standard method NCI-60 Human Tumor Cell Lines Screen for organic compound at development therapeutic program (DTP). Requests for access to this national resource can be submitted online at: […]

BT-549 = experiment: NCI anticancer screening, Breast Cancer BT-549; format: cell-based; conditions: Homo sapiens; BT-549, 10 μM; read-out: % Growth Inhibition (GI %)
Excerpt: as §1

PC-3 cells = experiment: MTT assay anticancer activity, PC-3; format: cell-based; conditions: Homo sapiens, PC-3, 5 µM, mean ± SEM, read-out: growth inhibition percentage of PC-3
Excerpt: MTT method was done as described above.

DU-145 = experiment: NCI anticancer screening, DU-145; format: cell-based; conditions: Homo sapiens; DU-145, 10 μM; read-out: % Growth Inhibition (GI %)
Excerpt: as §1

KM12 = experiment: NCI anticancer screening, Colon Cancer KM12; format: cell-based; conditions: Homo sapiens; KM12, 10 μM; read-out: % Growth Inhibition (GI %)
Excerpt: as §1

SK-MEL-28 = experiment: NCI anticancer screening, Melanoma SK-MEL-28; format: cell-based; conditions: Homo sapiens; SK-MEL-28, 10 μM; read-out: % Growth Inhibition (GI %)
Excerpt: as §1

A498 = experiment: NCI anticancer screening, Renal Cancer A498; format: cell-based; conditions: Homo sapiens; A498, 10 μM; read-out: % Growth Inhibition (GI %)
Excerpt: as §1

SNB-19 = experiment: NCI anticancer screening, CNS Cancer SNB-19; format: cell-based; conditions: Homo sapiens; SNB-19, 10 μM; read-out: % Growth Inhibition (GI %)
Excerpt: as §1

EKVX = experiment: NCI anticancer screening, Non-Small Cell Lung Cancer EKVX; format: cell-based; conditions: Homo sapiens, read-out: % Growth Inhibition (GI %)
Excerpt: as §1

RPMI-8226 = experiment: NCI anticancer screening, Leukemia RPMI-8226; format: cell-based; conditions: Homo sapiens; RPMI-8226, 10 μM; read-out: % Growth Inhibition (GI %)
Excerpt: as §1

IGROV1 = experiment: NCI anticancer screening, Ovarian Cancer IGROV1; format: cell-based; conditions: Homo sapiens, IGROV-1; IGROV1, 10 μM; read-out: % Growth Inhibition (GI %)
Excerpt: as §1

MDA-MB 231 cells = conditions: for inhibition: 5 µM
Protocol: Anticancer effect of the above-mentioned compounds was assayed using three human cancer cell lines. Triple negative breast cancer cell line (MDA-MB 231) and prostate cancer cell line (PC3) were cultured in DMEM (Lonza, USA) supplemented with 10% FBS. All cancer cells (4x10^3 cells/well) were seeded in sterile 96-well plates. After 24h, serial concentrations of the tested compounds were incubated with three cancer cell lines for 72 h at 37 °C in 5% CO2 incubator. […] The half maximal inhibitory concentration (IC50) values were calculated using the Graphpad Instat software.

SR = experiment: NCI anticancer screening, Leukemia SR; format: cell-based; conditions: Homo sapiens, read-out: % Growth Inhibition (GI %)
Excerpt: as §1

OVCAR-4 = experiment: NCI anticancer screening, Ovarian Cancer OVCAR-4; format: cell-based; conditions: Homo sapiens; OVCAR-4, 10 μM; read-out: % Growth Inhibition (GI %)
Excerpt: as §1

NCI-H23 = experiment: NCI anticancer screening, Non-Small Cell Lung Cancer NCI-H23; format: cell-based; conditions: Homo sapiens; NCI-H23, 10 μM; read-out: % Growth Inhibition (GI %)
Excerpt: as §1

T-47D = experiment: NCI anticancer screening, Breast Cancer T-47D; format: cell-based; conditions: Homo sapiens, T47D, read-out: % Growth Inhibition (GI %)
Excerpt: as §1

OVCAR-8 = experiment: NCI anticancer screening, Ovarian Cancer OVCAR-8; format: cell-based; conditions: Homo sapiens; OVCAR-8, 10 μM; read-out: % Growth Inhibition (GI %)
Excerpt: as §1

M14 = experiment: NCI anticancer screening, Melanoma M14; format: cell-based; conditions: Homo sapiens; M14, 10 μM; read-out: % Growth Inhibition (GI %)
Excerpt: as §1

SF-295 = experiment: NCI anticancer screening, CNS Cancer SF-295; format: cell-based; conditions: Homo sapiens; SF-295, 10 μM; read-out: % Growth Inhibition (GI %)
Excerpt: as §1

SF-539 = experiment: NCI anticancer screening, CNS Cancer SF-539; format: cell-based; conditions: Homo sapiens; SF-539, 10 μM; read-out: % Growth Inhibition (GI %)
Excerpt: as §1

COLO 205 = experiment: NCI anticancer screening, Colon Cancer COLO 205; format: cell-based; conditions: Homo sapiens; COLO 205, 10 μM; read-out: % Growth Inhibition (GI %)
Excerpt: as §1

LOX IMVI = experiment: NCI anticancer screening, Melanoma LOX IMVI; format: cell-based; conditions: Homo sapiens, read-out: % Growth Inhibition (GI %)
Excerpt: as §1

RXF 393 = experiment: NCI anticancer screening, Renal Cancer RXF 393; format: cell-based; conditions: Homo sapiens; RXF 393, 10 μM; read-out: % Growth Inhibition (GI %)
Excerpt: as §1

SK-OV-3 = experiment: NCI anticancer screening, Ovarian Cancer SK-OV-3; format: cell-based; conditions: Homo sapiens; SK-OV-3, 10 μM; read-out: % Growth Inhibition (GI %)
Excerpt: as §1

UACC-62 = experiment: NCI anticancer screening, Melanoma UACC-62; format: cell-based; conditions: Homo sapiens; UACC-62, 10 μM; read-out: % Growth Inhibition (GI %)
Excerpt: as §1

NCI-H460 = experiment: NCI anticancer screening, Non-Small Cell Lung Cancer NCI-H460; format: cell-based; conditions: Homo sapiens; NCI-H460, 10 μM; read-out: % Growth Inhibition (GI %)
Excerpt: as §1

K-562 = experiment: NCI anticancer screening, Leukemia K-562; format: cell-based; conditions: Homo sapiens, K562; K-562, 10 μM; read-out: % Growth Inhibition (GI %)
Excerpt: as §1

[1] = target: T1, Mdm2 (residues 1–118 T47W) (Homo sapiens, UniProt Q00987, T47W); experiment: MDM2 binding by microscale thermophoresis (MST)
T1 construct: Mdm2 (residues 1–118 T47W; 500 nM)
T1 sequence (Q00987 1-118 T47W): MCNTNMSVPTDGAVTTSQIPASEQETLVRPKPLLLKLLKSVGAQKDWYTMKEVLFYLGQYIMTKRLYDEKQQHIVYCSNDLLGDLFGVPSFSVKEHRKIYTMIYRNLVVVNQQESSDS
Protocol: MST is a complementary biophysical assay to assess the binding of a small molecule to its receptor. […] Experiments were performed in 50 mM phosphate buffer at pH 7.4 containing 150 mM NaCl, 5 mM DTT, and 5% DMSO. […] Kd values and uncertainties were calculated using the MO Affinity Analysis software.

NCI-H226 = experiment: NCI anticancer screening, Non-Small Cell Lung Cancer NCI-H226; format: cell-based; conditions: Homo sapiens; NCI-H226, 10 μM; read-out: % Growth Inhibition (GI %)
Excerpt: as §1

[2] = system: leukemia cells (CCRF-CEM; HL-60 (TB); K-562; MOLT-4; RPMI-8226, SR); experiment: NCI anticancer screening, leukemia subpanel; format: cell-based, human; conditions: smaller GI% than the other compounds
Excerpt: as §1

[3] = system: CNS cancer cells (SF-268, SF-295, SF-539, SNB-19, SNB-75, U251); experiment: NCI anticancer screening, CNS cancer subpanel; format: cell-based, human
Excerpt: as §1

Row | SMILES | inhibition at 10 µM (NCI-H322M) | inhibition at 10 µM (BT-549) | inhibition at 5 µM (PC-3 cells) | inhibition at 10 µM (DU-145) | inhibition at 10 µM (KM12) | inhibition at 10 µM (SK-MEL-28) | inhibition at 10 µM (SNB-19) | inhibition at 10 µM (EKVX) | inhibition at 10 µM (RPMI-8226) | inhibition at 10 µM (IGROV1) | inhibition (MDA-MB 231 cells) | inhibition at 10 µM (SR) | inhibition at 10 µM (OVCAR-4) | inhibition at 10 µM (NCI-H23) | inhibition at 10 µM (T-47D) | inhibition at 10 µM (OVCAR-8) | inhibition at 10 µM (M14) | inhibition at 10 µM (SF-295) | inhibition at 10 µM (SF-539) | inhibition at 10 µM (LOX IMVI) | further results
1 | O=C(c1nc2ccccc2[nH]1)[C@H]1[C@H](c2cccs2)C2CSCN2[C@]12C(=O)Nc1ccccc12 (stereo partly drawn) [Compound 6e, (3S,6′R)-6'-(1H-Benzo [d]imidazole-2-carbonyl)-7'-(thiophen-2-yl)-3′,6′,7′,7a′-tetrahydro-1′H-spiro [indoline-3.5′-pyrrolo [1,2-c]thiazol]-2-one] | 97.7% | 94.1% | 58.2 ± 0.729% | 109% | 98.8% | 105% | 104% | 100% | 101% | 89.7% | 58.2 ± 1.85% | 101% | 93.9% | 103% | 90.5% | 96.8% | 100% | 92.6% | 101% | 97.5% | inhibition at 10 µM (A498): 79.7%; IC50 (MDA-MB 231 cells): 5.61 µM; inhibition at 10 µM (COLO 205): 112%; inhibition at 10 µM (RXF 393): 112%; inhibition at 10 µM (SK-OV-3): 101%; inhibition at 10 µM (UACC-62): 90.8%; inhibition at 10 µM (NCI-H460): 101%; inhibition at 10 µM (K-562): 100%; Kd [1]: 113 µM
2 | O=C(c1nc2ccccc2[nH]1)[C@H]1[C@H](c2ccc(Cl)cc2Cl)C2CSCN2[C@]12C(=O)Nc1ccccc12 (stereo partly drawn) [Compound 6g, (3S,6′R)-6'-(1H-Benzo [d]imidazole-2-carbonyl)-7'-(2,4-dichlorophenyl)-3′,6′,7′,7a′-tetrahydro-1′H-spiro [indoline-3.5′-pyrrolo [1,2-c]thiazol]-2-one] | 79.5% | 92.3% | 54.5 ± 1.56% | 86.9% | 52.3% | 78.3% | 70.1% | 63.5% | 42.5% | 54.8% | 56.7 ± 0.87% | 45.8% | 57.6% | 85.4% | 54.4% | 77% | 66.8% | 63.7% | 76.4% | 67.2% | inhibition at 10 µM (NCI-H226): 61.8%; GI% for MOLT-4, RPMI-8226, and SR cancer cells [2]: 75%; IC50 (MDA-MB 231 cells): 6.22 µM; growth inhibition in CNS cancer cells [3]: less than 80%; inhibition at 10 µM (RXF 393): 40.7%; inhibition at 10 µM (UACC-62): 57%; inhibition at 10 µM (NCI-H460): 55.5%; inhibition at 10 µM (K-562): 65.6%
3 | COc1cc([C@@H]2C3CSCN3[C@]3(C(=O)Nc4ccccc43)[C@H]2C(=O)c2nc3ccccc3[nH]2)cc(OC)c1OC (stereo partly drawn) [Compound 6i, (3S,6′R)-6'-(1H-Benzo [d]imidazole-2-carbonyl)-7'-(3,4,5-trimethoxyphenyl)-3′,6′,7′,7a′-tetrahydro-1′H-spiro [indoline-3.5′-pyrrolo [1,2-c]thiazol]-2-one] | 93.1% | 93.7% | 49.8 ± 3.12% | 111% | 101% | 107% | 100% | 100% | 108% | 95.8% | 46 ± 1.41% | 91.8% | 100% | 104% | 102% | 99.3% | 107% | 95.2% | 99.6% | 101% | inhibition at 10 µM (A498): 81.7%; inhibition at 10 µM (COLO 205): 114%; inhibition at 10 µM (RXF 393): 109%; inhibition at 10 µM (SK-OV-3): 102%; inhibition at 10 µM (UACC-62): 87.4%; inhibition at 10 µM (NCI-H460): 105%; inhibition at 10 µM (K-562): 94.2%
4 | O=C(c1nc2ccccc2[nH]1)[C@H]1[C@H](c2ccc(Br)cc2)C2CSCN2[C@]12C(=O)Nc1ccccc12 (stereo partly drawn) [Compound 6l, (3S,6′R)-6'-(1H-Benzo [d]imidazole-2-carbonyl)-7'-(4-bromophenyl)-3′,6′,7′,7a′-tetrahydro-1′H-spiro [indoline-3.5′-pyrrolo [1,2-c]thiazol]-2-one] | 89.9% | 90.2% | 55.1 ± 1.98% | 97.1% | 59.8% | 84.8% | 67% | 68.8% | 61.3% | 63.6% | 53.59 ± 0.109% | 54.1% | 70.8% | 75% | 54.7% | 89.8% | 68.6% | 63.9% | 82.4% | 73.2% | inhibition at 10 µM (NCI-H226): 74.8%; GI% for MOLT-4, RPMI-8226, and SR cancer cells [2]: 75%; IC50 (MDA-MB 231 cells): 4.51 ± 0.203 µM; growth inhibition in CNS cancer cells [3]: less than 80%; inhibition at 10 µM (RXF 393): 62.1%; inhibition at 10 µM (UACC-62): 70.5%; inhibition at 10 µM (NCI-H460): 66.2%; inhibition at 10 µM (K-562): 74.5%; Kd [1]: 49.9 µM
